# Assay results: PubChem BioAssay (NCI)
#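 Method: 48-hour compound exposure of cells in 96-well plates, five concentrations, linear interpolation of endpoints. At the GI50, growth is halved. TGI is the concentration that stops growth completely.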
# What was measured:
# Experiment in all cases: NCI tumour cell line growth inhibition, 48 h
# A498 renal = system: A498 renal
# A549 NSCLC = system: A549 NSCLC
# ACHN renal = system: ACHN renal
# EKVX NSCLC = system: EKVX NSCLC
# HOP-92 NSCLC = system: HOP-92 NSCLC
# MCF7 breast = system: MCF7 breast
# NCI-H460 lung = system: NCI-H460 lung
# SF-295 CNS = system: SF-295 CNS
# SK-OV-3 ovarian = system: SK-OV-3 ovarian
# U251 CNS = system: U251 CNS
Compound,GI50 (A498 renal),TGI (A498 renal),GI50 (A549 NSCLC),TGI (A549 NSCLC),GI50 (ACHN renal),TGI (ACHN renal),GI50 (EKVX NSCLC),TGI (EKVX NSCLC),GI50 (HOP-92 NSCLC),TGI (HOP-92 NSCLC),GI50 (MCF7 breast),TGI (MCF7 breast),GI50 (NCI-H460 lung),TGI (NCI-H460 lung),GI50 (SF-295 CNS),TGI (SF-295 CNS),GI50 (SK-OV-3 ovarian),TGI (SK-OV-3 ovarian),GI50 (U251 CNS),TGI (U251 CNS)
COc1cc(N=Nc2ccc(O)c3ncccc23)c2ncccc2c1,24200 nM,93.5 µM,8040 nM,> 100 µM,2300 nM,14.2 µM,4080 nM,> 100 µM,1970 nM,> 100 µM,2180 nM,> 100 µM,3130 nM,> 100 µM,18500 nM,> 100 µM,5570 nM,> 100 µM,3430 nM,> 100 µM
O=C(Nc1ccc(Br)cc1F)c1cc(Cl)ccc1O,160 nM,0.604 µM,2780 nM,> 100 µM,619 nM,> 31.3 µM,1120 nM,> 26.2 µM,174 nM,0.557 µM,1840 nM,> 100 µM,487 nM,> 66.5 µM,1770 nM,3.65 µM,441 nM,2.2 µM,709 nM,> 100 µM
C[C@@H]1C[C@@H]([C@@H](CC2CC(=O)NC(=O)C2)OC(=O)CC(=O)c2ccccc2)C(=O)[C@@H](C)C1,177 nM,2.36 µM,567 nM,> 100 µM,77.7 nM,> 100 µM,495 nM,–,324 nM,> 24.9 µM,645 nM,> 100 µM,461 nM,> 43.9 µM,224 nM,12.3 µM,411 nM,> 43.7 µM,925 nM,> 100 µM
COc1ccc2nc3ccccc3c(NCc3ccc(F)cc3)c2c1,1620 nM,5.74 µM,1990 nM,9.89 µM,1820 nM,6.68 µM,2160 nM,7.95 µM,1390 nM,6.6 µM,1170 nM,3.52 µM,1780 nM,6.18 µM,1580 nM,6.48 µM,2790 nM,10.4 µM,1940 nM,7.82 µM
Cc1cc(N[C@@H]2CCC[C@H](Nc3ccnc4cc(Cl)ccc34)C2)nc(N2CCCCCC2)n1,1740 nM,3.2 µM,2190 nM,4.94 µM,1830 nM,3.82 µM,1620 nM,3.84 µM,1620 nM,3.36 µM,1430 nM,3.03 µM,1580 nM,3.2 µM,1320 nM,2.74 µM,1860 nM,3.73 µM,1730 nM,3.41 µM
CC(=O)Nc1ccc(-c2csc(Nc3cccc(-c4csc(C)n4)c3)n2)cc1,6920 nM,> 29.1 µM,1210 nM,18.9 µM,1870 nM,22.6 µM,4990 nM,22.2 µM,–,> 23.1 µM,680 nM,> 50 µM,1000 nM,> 50 µM,907 nM,> 13.2 µM,2380 nM,19.1 µM,1130 nM,9.69 µM
COc1ccc(-c2nnc3n(C)c(=O)c4ccccc4n23)cc1N,2840 nM,54.5 µM,1470 nM,> 100 µM,17300 nM,> 100 µM,5870 nM,> 100 µM,10900 nM,99.5 µM,43 nM,> 100 µM,50.8 nM,> 100 µM,49.9 nM,> 100 µM,3250 nM,> 100 µM,1630 nM,> 100 µM
O=C(Cc1ccc(F)c(Cl)c1)Nc1cc(C2(C(F)(F)F)CC2)nn1CC1CCCCC1,1520 nM,4.89 µM,4600 nM,> 15 µM,4220 nM,13.9 µM,2550 nM,12.6 µM,2690 nM,10.7 µM,4010 nM,> 15 µM,3280 nM,8.41 µM,3620 nM,> 15 µM,3240 nM,11 µM,5130 nM,> 15 µM
COc1ccc(-c2ccc(=O)oc2C#Cc2cc(OC)c(OC)c(OC)c2)cc1O,2360 nM,24.9 µM,563 nM,21.9 µM,628 nM,> 62.1 µM,1380 nM,> 100 µM,999 nM,9.87 µM,120 nM,> 100 µM,287 nM,4.59 µM,495 nM,> 100 µM,318 nM,5.65 µM,358 nM,4.58 µM
CC(NCCC(c1ccccc1)c1ccccc1)c1ccccc1 (centres undefined),1450 nM,3.93 µM,3330 nM,12.8 µM,3320 nM,12 µM,3630 nM,16.5 µM,1050 nM,3.56 µM,1800 nM,3.63 µM,1710 nM,3.26 µM,1730 nM,3.86 µM,1650 nM,3.81 µM,1590 nM,2.99 µM
Cc1c(N(C)C)ccc2c(=O)c3cccc(CC(=O)O)c3oc12,–,> 100 µM,–,> 100 µM,–,> 100 µM,–,> 100 µM,–,> 100 µM,–,> 100 µM,–,> 100 µM,–,> 100 µM,–,> 100 µM,–,> 100 µM
COc1cc(C(=O)N2CCN(C(=O)c3cc(OC)c(OC)c(OC)c3)C2=S)cc(OC)c1OC,17700 nM,33 µM,19900 nM,56.7 µM,17800 nM,34.5 µM,–,–,16100 nM,34.3 µM,5230 nM,27.6 µM,27200 nM,73.6 µM,19000 nM,43.7 µM,20200 nM,52.7 µM,16300 nM,34.4 µM
N=c1c2c(-c3ccccc3)c(-c3ccccc3)n(Cc3ccccc3)c2ncn1C1CCC(O)CC1 (centres undefined),345 nM,14.4 µM,103 nM,12.9 µM,65.3 nM,12.8 µM,–,–,240 nM,4.33 µM,278 nM,2.36 µM,54.2 nM,1.5 µM,83.6 nM,1.45 µM,2320 nM,15.7 µM,150 nM,5.3 µM
